In US10168342B2, “Lipid probes and uses thereof” (THE SCRIPPS RESEARCH INSTITUTE, priority 2015, dated 2019):
Read-outs that look alike come from different tables or passages of the source.

How the values were obtained:
[1] = target: AEA-DA lipid probe targets in Neuro2a cells (Mus musculus, UniProt Q9JKC6)
[2] = target: T1, AEA-DA lipid probe targets in Neuro2a cells (Mus musculus, UniProt P04223)
T1 sequence (P04223 22-369): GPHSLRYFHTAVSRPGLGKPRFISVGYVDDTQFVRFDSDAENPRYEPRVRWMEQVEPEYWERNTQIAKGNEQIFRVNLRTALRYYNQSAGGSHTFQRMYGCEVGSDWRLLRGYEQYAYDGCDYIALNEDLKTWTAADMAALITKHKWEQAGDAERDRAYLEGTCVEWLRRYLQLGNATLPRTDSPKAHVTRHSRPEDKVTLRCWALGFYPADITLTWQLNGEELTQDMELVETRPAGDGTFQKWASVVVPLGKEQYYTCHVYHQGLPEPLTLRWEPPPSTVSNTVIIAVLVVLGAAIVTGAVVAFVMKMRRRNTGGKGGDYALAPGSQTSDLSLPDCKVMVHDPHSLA

[3] = target: T2, AEA-DA lipid probe targets in Neuro2a cells (Mus musculus, UniProt Q921T2)
T2 sequence (Q921T2 1-595): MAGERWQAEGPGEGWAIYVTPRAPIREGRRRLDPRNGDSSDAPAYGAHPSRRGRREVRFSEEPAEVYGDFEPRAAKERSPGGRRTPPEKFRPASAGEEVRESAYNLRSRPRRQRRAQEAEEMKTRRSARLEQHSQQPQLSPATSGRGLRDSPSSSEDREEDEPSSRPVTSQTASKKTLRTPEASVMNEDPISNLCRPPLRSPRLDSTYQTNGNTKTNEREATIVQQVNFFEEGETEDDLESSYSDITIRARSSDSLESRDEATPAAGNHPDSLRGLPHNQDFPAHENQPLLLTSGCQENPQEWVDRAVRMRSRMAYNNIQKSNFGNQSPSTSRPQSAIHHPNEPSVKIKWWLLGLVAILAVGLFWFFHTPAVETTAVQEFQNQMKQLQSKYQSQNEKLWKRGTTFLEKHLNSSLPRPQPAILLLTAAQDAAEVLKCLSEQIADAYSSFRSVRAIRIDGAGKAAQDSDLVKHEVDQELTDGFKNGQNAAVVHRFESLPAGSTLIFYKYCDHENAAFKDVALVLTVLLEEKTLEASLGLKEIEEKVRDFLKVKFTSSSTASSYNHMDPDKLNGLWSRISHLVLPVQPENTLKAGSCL

[4] = target: AEA-DA lipid probe targets in Neuro2a cells (Mus musculus, UniProt O88545)
[5] = target: AEA-DA lipid probe targets in Neuro2a cells (Mus musculus, UniProt Q91VM5); details: protein Rbmxl1, Neuro2a cells
[6] = target: AEA-DA lipid probe targets in Neuro2a cells (Mus musculus, UniProt Q3UV70); details: protein Pdp1; Neuro2a cells; competitor 25 μM
[7] = test system: NAEs, NATs, AA and 2-AG in Neuro2a cells; assay: Targeted LC-MS (MRM) analysis of lipids from Neuro2a cells; format: cell-based, mouse; details: for NAEs when co-treated with PF-7845 (1 μM) / AA levels: 10 μM; for AA levels / 2-AG levels / cellular concentrations of NAEs and NATs: Neuro2a cells; for 2-AG levels / cellular concentrations of NAEs and NATs: 10 μM (PF-7845 1 μM); for cellular concentrations of NAEs and NATs: 6 h
Method: Discovery metabolite profiling was performed as described by Saghatelian et al., “Assignment of endogenous substrates to enzymes by global metabolite profiling,” Biochemistry 43:14332-14339 (2004) with several modifications. […] The media from the cells was removed and cells were washed with DPBS (2×5.0 mL) before adding freshly prepared media solutions containing vehicle or compound. After incubating for 6 h at 37° C. and subsequent removal of the media, the cells were harvested by scrapping in cold DPBS (3 mL) and pelleted by centrifugation in glass vials. The pellets were washed once with cold DPBS (3 mL) and then cold […] (2:1) (3 mL) was added. After vortexing, the vials were centrifuged (3,000×g, 10 min, 4° C.) and the bottom (organic) layer was transferred to a new glass vial and concentrated under a stream of N2. Samples were stored at −80° C. until the day of analysis when they were reconstituted in Mobile Phase A (100 μL, see below).
Neuro2a cells were treated and lipids extracted as described above. A mixture of internal standards [AEA-d4 (10 pmol), 2-AG-d5 (100 pmol), AA-d8 (100 pmol), PEA-d4 (100 pmol), PDA (1.0 nmol)] was added to the organic phase prior to extracting cells. NAEs, MAGs, AA and NATs were analyzed similarly to previously described methods (Saghatelian et al., 2004). The following MS parameters were used to measure the indicated metabolites by MRM (precursor ion, product ion, collision energy, polarity): NAE 20:4 (AEA) (348, 62, 12, positive), AEA-d4 (352, 66, 12, positive), NAE 16:0 (PEA) (300, 62, 12, positive), PEA-d4 (304, 62, 12, positive), NAE 18:0 (328, 62, 12, positive), NAE 18:1 (326, 62, 12, positive), NAE 18:2 (324, 62, 12, positive), 2-AG (379, 287, 8, positive), 2-AG-d5 (384, 287, 8, positive), AA (303, 259, 4, negative), AA-d8 (311, 267, 4, negative), NAT 20:4 (410, 80, 35, negative), NAT 22:1 (444, 80, 35, negative), NAT 24:1 (472, 80, 35, negative), NAT 24:0 (474, 80, 35, negative), NAT 26:0 (502, 80, 35, negative). The indicated lipids were quantified by measuring the area under the peak relative to an internal standard (AEA-d4 for AEA and NAE 18:2; PEA-d4 for PEA, NAE 18:1 and NAE 18:0; 2-AG-d5 for 2-AG; AA-d8 for AA and 20:4 NAT; PDA for all other NATs).

[8] = target: AEA-DA lipid probe targets in Neuro2a cells (Mus musculus, UniProt Q99KI3); details: competitor 25 μM
[9] = target: AEA-DA lipid probe targets in Neuro2a cells (Mus musculus, UniProt Q78IK4); details: protein Apool; Neuro2a cells; competitor 25 μM
[10] = target: AEA-DA lipid probe targets in Neuro2a cells (Mus musculus, UniProt Q8VCL2); details: competitor 25 μM
Sequence of AEA-DA lipid probe targets in Neuro2a cells (Mus musculus, UniProt Q8VCL2) (Q8VCL2 42-255): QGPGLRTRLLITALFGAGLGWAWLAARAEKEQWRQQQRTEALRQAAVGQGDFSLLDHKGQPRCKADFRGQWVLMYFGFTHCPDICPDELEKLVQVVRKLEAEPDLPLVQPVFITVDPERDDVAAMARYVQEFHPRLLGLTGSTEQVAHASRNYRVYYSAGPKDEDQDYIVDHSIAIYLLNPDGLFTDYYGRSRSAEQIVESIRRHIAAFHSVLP

Sequence of AEA-DA lipid probe targets in Neuro2a cells (Mus musculus, UniProt Q91VM5) (Q91VM5 whole entry): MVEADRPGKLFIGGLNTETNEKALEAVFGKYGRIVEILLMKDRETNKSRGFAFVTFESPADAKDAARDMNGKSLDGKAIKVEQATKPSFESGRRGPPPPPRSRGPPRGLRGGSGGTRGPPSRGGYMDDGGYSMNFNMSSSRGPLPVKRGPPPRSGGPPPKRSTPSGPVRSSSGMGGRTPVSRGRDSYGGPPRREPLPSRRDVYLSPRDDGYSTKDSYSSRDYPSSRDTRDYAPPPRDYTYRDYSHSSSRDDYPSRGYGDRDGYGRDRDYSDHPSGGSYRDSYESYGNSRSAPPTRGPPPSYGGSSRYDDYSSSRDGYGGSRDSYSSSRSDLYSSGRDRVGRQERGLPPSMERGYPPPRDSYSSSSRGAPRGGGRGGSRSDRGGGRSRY
Sequence of AEA-DA lipid probe targets in Neuro2a cells (Mus musculus, UniProt Q99KI3) (Q99KI3 whole entry): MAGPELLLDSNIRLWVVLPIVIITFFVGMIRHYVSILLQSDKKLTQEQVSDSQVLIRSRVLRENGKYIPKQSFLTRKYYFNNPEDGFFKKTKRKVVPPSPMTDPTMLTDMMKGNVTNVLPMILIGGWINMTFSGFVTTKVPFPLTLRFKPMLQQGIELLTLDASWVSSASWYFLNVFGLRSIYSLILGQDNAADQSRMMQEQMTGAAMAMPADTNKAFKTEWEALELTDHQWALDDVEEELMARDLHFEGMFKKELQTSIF
Sequence of AEA-DA lipid probe targets in Neuro2a cells (Mus musculus, UniProt Q78IK4) (Q78IK4 28-265): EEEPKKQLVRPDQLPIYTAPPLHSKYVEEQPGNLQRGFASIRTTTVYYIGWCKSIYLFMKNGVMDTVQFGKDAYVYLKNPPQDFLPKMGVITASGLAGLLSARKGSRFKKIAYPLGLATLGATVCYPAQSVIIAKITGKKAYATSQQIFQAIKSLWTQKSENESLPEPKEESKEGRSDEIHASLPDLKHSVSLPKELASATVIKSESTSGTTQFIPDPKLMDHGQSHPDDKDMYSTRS
Sequence of AEA-DA lipid probe targets in Neuro2a cells (Mus musculus, UniProt Q3UV70) (Q3UV70 72-538): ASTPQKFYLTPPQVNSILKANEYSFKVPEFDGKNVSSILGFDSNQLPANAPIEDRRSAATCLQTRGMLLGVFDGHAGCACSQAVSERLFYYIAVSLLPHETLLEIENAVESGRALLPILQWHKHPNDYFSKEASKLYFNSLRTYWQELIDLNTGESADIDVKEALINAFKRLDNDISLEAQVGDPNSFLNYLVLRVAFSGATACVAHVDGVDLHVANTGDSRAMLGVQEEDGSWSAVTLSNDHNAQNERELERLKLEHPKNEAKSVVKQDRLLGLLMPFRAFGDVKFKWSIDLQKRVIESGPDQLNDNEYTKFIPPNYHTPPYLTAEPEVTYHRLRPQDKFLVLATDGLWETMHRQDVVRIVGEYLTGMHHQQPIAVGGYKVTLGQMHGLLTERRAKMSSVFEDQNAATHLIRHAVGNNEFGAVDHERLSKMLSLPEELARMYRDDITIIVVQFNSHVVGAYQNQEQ
Sequence of AEA-DA lipid probe targets in Neuro2a cells (Mus musculus, UniProt Q9JKC6) (Q9JKC6 whole entry): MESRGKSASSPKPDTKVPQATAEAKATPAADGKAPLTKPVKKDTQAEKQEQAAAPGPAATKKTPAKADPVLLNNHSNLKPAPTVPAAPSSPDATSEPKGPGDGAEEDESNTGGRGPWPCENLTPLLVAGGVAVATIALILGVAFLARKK
Sequence of AEA-DA lipid probe targets in Neuro2a cells (Mus musculus, UniProt O88545) (O88545 whole entry): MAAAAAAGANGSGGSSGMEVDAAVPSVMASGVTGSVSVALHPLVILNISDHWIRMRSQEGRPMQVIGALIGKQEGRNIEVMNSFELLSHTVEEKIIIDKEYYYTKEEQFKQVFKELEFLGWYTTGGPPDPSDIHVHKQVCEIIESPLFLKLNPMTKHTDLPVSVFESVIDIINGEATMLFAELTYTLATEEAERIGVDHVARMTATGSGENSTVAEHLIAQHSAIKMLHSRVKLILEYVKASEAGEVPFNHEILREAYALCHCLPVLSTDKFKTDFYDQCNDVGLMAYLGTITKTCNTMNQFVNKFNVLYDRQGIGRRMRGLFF

## CCCCC/C=C\C/C=C\C/C=C\C/C=C\CCCC(=O)NCCO [AEA, anandamide, reference compound]
[1]; competitor 200 μM
  SILAC ratio Cend1: 1.7
[2]; competitor 200 μM
  SILAC ratio H2-K1: 1.2
[3]; competitor 200 μM
  SILAC ratio Tor1aip1: 1.5
[4]; competitor 200 μM
  SILAC ratio Cops6: 1.4
[5]; competitor 200 μM
  SILAC ratio (AEA-DA competition): 1.0

## O=C(/C=C/c1cccnc1)NCCCCC1CCN(C(=O)c2ccccc2)CC1 [FK-866, reference compound]
[6]
  SILAC ratio (AEA-DA competition): 0.9

## CN1CCN(C(=O)c2c(-c3ccccc3)c3cc([N+](=O)[O-])ccc3n2C)CC1 [KML110, (1-Methyl-5-nitro-3-phenyl-1H-indol-2-yl)(4-methylpiperazin-1-yl)methanone]
[7]
  NAEs when co-treated with PF-7845 (1 μM): do not produce elevations
  AA levels: do not affect
  2-AG levels: modest increase
  cellular concentrations of NAEs and NATs: elevated
[8]
  SILAC ratio Emc3: 1.0
[1]; competitor 25 μM
  SILAC ratio Cend1: 0.9
[9]
  SILAC ratio (AEA-DA competition): 1.0
[10]
  SILAC ratio Sco2: 1.5

## CN1CCN(C(=O)c2[nH]c3ccc([N+](=O)[O-])cc3c2-c2ccccc2)CC1 [MJN228, (4-Methylpiperazin-1-yl)(5-nitro-3-phenyl-1H-indol-2-yl)methanone]
[7]
  NAEs when co-treated with PF-7845 (1 μM): do not produce elevations
  AA levels: do not affect
  2-AG levels: modest increase
  cellular concentrations of NAEs and NATs: elevated
[2]; competitor 10 μM
  SILAC ratio H2-K1: 1.0
[2]; competitor 50 μM
  SILAC ratio H2-K1: 0.9
[2]; competitor 100 μM
  SILAC ratio H2-K1: 1.0
[6]
  SILAC ratio (AEA-DA competition): 1.4
[3]; competitor 10 μM
  SILAC ratio Tor1aip1: 1.3
[3]; competitor 25 μM
  SILAC ratio Tor1aip1: 1.3
[3]; competitor 50 μM
  SILAC ratio Tor1aip1: 1.3
[3]; competitor 100 μM
  SILAC ratio Tor1aip1: 2.0
[4]; competitor 100 μM
  SILAC ratio Cops6: 1.2
[5]; competitor 10 μM
  SILAC ratio (AEA-DA competition): 1.1
[5]; competitor 25 μM
  SILAC ratio (AEA-DA competition): 1.2
[5]; competitor 100 μM
  SILAC ratio (AEA-DA competition): 1.3

## C=CCN(C)CCCCCCOc1ccc(C(=O)c2ccc(Br)cc2)c(F)c1 [Ro 48-8071, reference compound]
[8]
  SILAC ratio Emc3: 1.5
[9]
  SILAC ratio (AEA-DA competition): 0.9
[10]
  SILAC ratio Sco2: 1.0
